Columns and labels:
[1] = Solubility / miscibility in water and attainable concentration; assay type: physicochemical; details: NaOH as neutralizing agent, room temperature; higher concentrations impossible or recrystallized during storage
[2] = Brookfield viscosity of the preserved pigment slurry; assay type: physicochemical
Experimental: Measurement of the viscosity was performed on a Brookfield viscosimeter type PVF-100 at 100 rpm. The following spindles were used for the individual measurements:
The measurement was carried out in a low 400 ml beaker.
The temperature during the measurement was 20° C. The measurement was performed after 1 min of stirring.
Prior to the actual measurements, all samples were stirred intensively for 2 min (5000 rpm, stirring disc diameter 50 mm).
This type of viscosity measurement was used in all of the following examples.

aerobic mesophilic germs = test: Germ count (determination of aerobic mesophilic germs) in preserved slurry or coolant; assay type: cell-based, pseudomonads (predominantly Pesudomonas aeruginosa)
Experimental: The germ count was determined according to the method “Determination of aerobic mesophilic germs”, Schweizerisches Lebensmittelbuch, chapter 56, paragraph 7.01, 1985 edition, revised version 1988. Mostly, the bacterial strains detected were from the family of pseudomonads (predominantly Pesudomonas aeruginosa).

[3] = cited from earlier work
[4] = pH of the preserved slurry or coolant; assay type: physicochemical

SMILES: Oc1ccccc1-c1ccccc1 [o-phenylphenol]
- attainable concentration of o-phenylphenol solution [1]: ≤ 20 % by wt.
- Brookfield viscosity spindle 3, 100 rpm after preparation ([2]; calcium carbonate slurry 77.8% solids, 250 g actives/t, added according to example 8, 47.5% solution (Example 11), blank 340): 350 mPas
- Brookfield viscosity spindle 3, 100 rpm after 1 week ([2]; calcium carbonate slurry 77.8% solids, 250 g actives/t, added according to example 8, 47.5% solution (Example 11), blank 350): 380 mPas
- Brookfield viscosity spindle 3, 100 rpm after preparation ([2]; calcium carbonate slurry 77.8% solids, 250 g actives/t, added as solution of example 2 (Example 4), blank 340): 320 mPas
- Brookfield viscosity spindle 3, 100 rpm after 1 week ([2]; calcium carbonate slurry 77.8% solids, 250 g actives/t, added as solution of example 2 (Example 4), blank 350): 460 mPas
- Brookfield viscosity spindle 3, 100 rpm after preparation ([2]; kaolin slurry 72.8% solids, 300 g actives/t, added as solution of example 1 (Example 3), blank 240): 310 mPas
- Brookfield viscosity spindle 3, 100 rpm after 1 week ([2]; kaolin slurry 72.8% solids, 300 g actives/t, added as solution of example 1 (Example 3), blank 330): 760 mPas
- Brookfield viscosity spindle 3, 100 rpm after preparation ([2]; kaolin slurry 72.8% solids, 300 g actives/t, added as solution of example 7 (Example 10), blank 240): 250 mPas
- Brookfield viscosity spindle 3, 100 rpm after 1 week ([2]; kaolin slurry 72.8% solids, 300 g actives/t, added as solution of example 7 (Example 10), blank 330): 350 mPas
- Brookfield viscosity spindle 3, 100 rpm after preparation ([2]; talc slurry 64.2% solids, 350 g actives/t, added as 30% solution of example 9 (Example 12), blank 320): 320 mPas
- Brookfield viscosity spindle 3, 100 rpm after 1 week ([2]; talc slurry 64.2% solids, 350 g actives/t, added as 30% solution of example 9 (Example 12), blank 480): 540 mPas
- germ count after 24 hrs (aerobic mesophilic germs; 5% oil in water coolant emulsion, 2 kg actives/t, added as 50% solution (Example 13), blank 10^7/g): < 100 g⁻¹
- germ count after 24 hrs (aerobic mesophilic germs; calcium carbonate slurry, 250 g actives/t, added according to example 8, 47.5% solution (Example 11), blank 10^6/g): < 100 g⁻¹
- germ count after 24 hrs (aerobic mesophilic germs; calcium carbonate slurry, 250 g actives/t, added as solution of example 2 (Example 4), blank 10^5/g): < 100 g⁻¹
- germ count after 24 hrs (aerobic mesophilic germs; kaolin slurry, 300 g actives/t, added as solution of example 1 (Example 3), blank 10^5/g): < 100 g⁻¹
- germ count after 24 hrs (aerobic mesophilic germs; kaolin slurry, 300 g actives/t, added as solution of example 7 (Example 10), blank 10^5/g): < 100 g⁻¹
- germ count after 24 hrs (aerobic mesophilic germs; talc slurry, 350 g actives/t, added as 30% solution of example 9 (Example 12), blank 10^5/g): < 100 g⁻¹
- solubility in water [3]: almost insoluble in water
- water miscibility ([3]; o-phenylphenol in monopropylene glycol): not water miscible
- pH of coolant ([4]; 5% oil in water coolant emulsion, 2 kg actives/t, added as 50% solution (Example 13), blank 6.9): 7.0
- pH of slurry ([4]; calcium carbonate slurry 77.8% solids, 250 g actives/t, added according to example 8, 47.5% solution (Example 11), blank 9.6): 9.5
- pH of slurry ([4]; calcium carbonate slurry 77.8% solids, 250 g actives/t, added as solution of example 2 (Example 4, prior art), blank 9.6): 10.2
- pH of slurry ([4]; kaolin slurry 72.8% solids, 300 g actives/t, added as solution of example 1 (Example 3, prior art), blank 7.4): 8.1
- pH of slurry ([4]; kaolin slurry 72.8% solids, 300 g actives/t, added as solution of example 7 (Example 10), blank 7.4): 7.4
- pH of slurry ([4]; talc slurry 64.2% solids, 350 g actives/t, added as 30% solution of example 9 (Example 12), blank 10.1): 10.2
